Patent publication US6939946B2, “Ring modified cyclic peptide analogs” (Eli Lilly and Company, priority 1998, dated 2005)
Read-outs that look alike come from different tables or passages of the source. Numbered stars: 1 amine (or outer) side, 2 acyl side, 3 side chain; on linkers, the order of the positions; unused ones are H or OH. Bridge positions count the residues as written; N and C are the ends. Square brackets hold non-standard residues; d marks the D form. Peptide text beside a SMILES is read from it. * marks the point of attachment. ξ: configuration not given here. pTerphenylCO(4''-OnC5H11) = CCCCCOc1ccc(-c2ccc(-c3ccc(C(=O)*)cc3)cc2)cc1; Orn(4R-OH,5R-OH) = O=C([C@H](C[C@@H](O)[C@@H](O)N[*:3])N[*:1])[*:2]; Pro(3S-OH,4S-Me) = C[C@H]1CN[C@H](C(=O)O)[C@H]1O; hTyr(3R-OH) = N[C@H](C(=O)O)[C@H](O)Cc1ccc(O)cc1; X1 = CN1CCC(NC[C@H](N[*:1])C(=O)[*:2])CC1; Hyp = O=C(O)[C@@H]1C[C@@H](O)CN1; Thr(3ξ) = CC(O)[C@H](N)C(=O)O; dDap = NC[C@@H](N)C(=O)O; Dap = NC[C@H](N)C(=O)O

Tests used:
Cryptococcus neoformans = settings: in vitro
Histoplasma capsulatum = settings: in vitro
C. parapsilosis = settings: in vitro
C. albicans = settings: in vitro
Pneumocystis carinii = settings: cited from earlier work
A. fumigatus [1] = settings: in vitro
A. Fumigatus [2] = settings: murine model of organ recovery, cited from earlier work
[3] = the molecule shown is the open-chain precursor; other bond; 21-membered ring; SnCl2/NaHCO3; CH2Cl2; 2.0 mM
[4] = the molecule shown is the open-chain precursor, amide bond, H2/Pd-C (EtOH/AcOH), then Et3N, Et2O, 2 steps

Compound | Minimal Inhibitory Concentration MIC Cryptococcus neoformans (Cryptococcus neoformans) [µg/mL] | Minimal Inhibitory Concentration MIC Histoplasma capsulatum (Histoplasma capsulatum) [µg/mL] | Minimal Inhibitory Concentration MIC C. parapsilosis (C. parapsilosis) [µg/mL] | Minimal Inhibitory Concentration MIC C. albicans (C. albicans) [µg/mL] | Minimal Inhibitory Concentration MIC A. fumigatus (A. fumigatus [1]) [µg/mL] | further results
CCCCCOc1ccc(-c2ccc(-c3ccc(C(=O)N[C@H]4C[C@@H](O)[C@@H](O)NC(=O)[C@@H]5[C@@H](O)[C@@H](C)CN5C(=O)[C@H](C(C)O)NC(=O)[C@H]([C@H](O)Cc5ccc(O)cc5)NC(=O)[C@@H]5C[C@@H](O)CN5C(=O)[C@H](C(C)O)NC4=O)cc3)cc2)cc1 (stereo partly drawn) [Compound C1, reference compound] ({pTerphenylCO(4''-OnC5H11)}-[Orn(4R-OH,5R-OH)][Thr(3ξ)][Hyp][hTyr(3R-OH)][Thr(3ξ)][Pro(3S-OH,4S-Me)]; lactam 1-C) | >20 | 0.01 | 0.156 | 0.01 | 0.02 | reduction of the number of cysts in the lungs (Pneumocystis carinii; heavily infected, immunosuppressed rats, orally 5 mg/kg once daily for 4 days): more than 99%; reduction in all life cycle forms (Pneumocystis carinii; prophylactic oral administration of 1 mg/kg twice daily for 4 weeks): > 90%; number of A. Fumigatus recovered from the kidneys (A. Fumigatus [2]; administered intraperitoneally): significantly reduced; effectiveness compared with amphotericin B on a mg/kg basis (A. Fumigatus [2]; both administered intraperitoneally): as effective as amphotericin B
Boc-Asp-semialdehyde(dimethyl acetal)-Thr(TBS)-Hyp(TBS)-hTyr(3-OTBS,4'-OTBS)-Thr(TBS)-Pro(3-OTBS,4-Me)-NHNH2? |  |  |  |  |  | ring closure, crude yield [3]: 100%
Boc-Orn-Val-Hyp(TBS)-hTyr(3-OTBS,4'-OTBS)-Thr(TBS)-Pro(3-OTBS,4-Me)-N(Boc)2? |  |  |  |  |  | ring closure, isolated yield ([4]; 21-membered ring, 2.1 mM): 43%
CCCCCOc1ccc(-c2ccc(-c3ccc(C(=O)N[C@@H]4CNC(=O)CNC(=O)[C@@H]5[C@@H](O)[C@@H](C)CN5C(=O)[C@H](C(C)O)NC(=O)[C@H]([C@H](O)Cc5ccc(O)cc5)NC(=O)[C@@H]5C[C@@H](O)CN5C(=O)[C@H](C(C)O)NC4=O)cc3)cc2)cc1 (stereo partly drawn) [E7-6(a)] ({pTerphenylCO(4''-OnC5H11)}-[dDap][Thr(3ξ)][Hyp][hTyr(3R-OH)][Thr(3ξ)][Pro(3S-OH,4S-Me)]G; lactam 1-C) | >20 | >20 | >20 | >20 | >20 | 
CCCCCOc1ccc(-c2ccc(-c3ccc(C(=O)NC[C@@H]4NC(=O)CNC(=O)[C@@H]5[C@@H](O)[C@@H](C)CN5C(=O)[C@H](C(C)O)NC(=O)[C@H]([C@H](O)Cc5ccc(O)cc5)NC(=O)[C@@H]5C[C@@H](O)CN5C(=O)[C@H](C(C)O)NC4=O)cc3)cc2)cc1 (stereo partly drawn) [E7-14(b)] (cyclo([Dap](pTerphenylCO(4''-OnC5H11))[Thr(3ξ)][Hyp][hTyr(3R-OH)][Thr(3ξ)][Pro(3S-OH,4S-Me)]G)) | >20 | 0.078 | >20 | 0.156 | >20 | 
C[C@@H]1[C@H](O)[C@@H](C)/C=C/C=C/C=C/C=C/C=C/C=C/C=C/[C@H](O[C@@H]2O[C@H](C)[C@@H](O)[C@H](N)[C@@H]2O)C[C@@H]2O[C@](O)(C[C@@H](O)C[C@@H](O)[C@H](O)CC[C@@H](O)C[C@@H](O)CC(=O)O[C@H]1C)C[C@H](O)[C@H]2C(=O)O [Ampho B, Amphotericin B, reference compound] | 0.039 | 0.039 | 0.038 | 0.078 | 0.312 | 
CCCCCOc1ccc(-c2ccc(-c3ccc(C(=O)N[C@H]4CNC(=O)CNC(=O)[C@@H]5[C@@H](O)[C@@H](C)CN5C(=O)[C@H](C(C)O)NC(=O)[C@H]([C@H](O)Cc5ccc(O)cc5)NC(=O)[C@@H]5C[C@@H](O)CN5C(=O)[C@H](C(C)O)NC4=O)cc3)cc2)cc1 (stereo partly drawn) [E7-6(b)] ({pTerphenylCO(4''-OnC5H11)}-[Dap][Thr(3ξ)][Hyp][hTyr(3R-OH)][Thr(3ξ)][Pro(3S-OH,4S-Me)]G; lactam 1-C) | >20 | 1.25 | >20 | 0.312 | 5.0 | 
CCCCCOc1ccc(-c2ccc(-c3ccc(C(=O)N[C@H]4CNC(=O)[C@H](CNC5CCN(C)CC5)NC(=O)[C@@H]5[C@@H](O)[C@@H](C)CN5C(=O)[C@H](C(C)O)NC(=O)[C@H]([C@H](O)Cc5ccc(O)cc5)NC(=O)[C@@H]5C[C@@H](O)CN5C(=O)[C@H](C(C)O)NC4=O)cc3)cc2)cc1 (stereo partly drawn) [Compound E8-9] ({pTerphenylCO(4''-OnC5H11)}-[Dap][Thr(3ξ)][Hyp][hTyr(3R-OH)][Thr(3ξ)][Pro(3S-OH,4S-Me)][X1]; lactam 1-C) | >20 | 0.625 | 5.0 | 0.156 | 5.0 | 
Boc-Cys(SO2; S-CH2CH2NH2)-Thr(TBS)-Hyp(TBS)-hTyr(3-OTBS,4'-OTBS)-Thr(TBS)-Pro(3-OTBS,4-Me)-N(Boc)2? |  |  |  |  |  | ring closure, isolated yield ([4]; 22-membered ring, 1.1 mM): 67%
